The experiment deals with PIK3CG (human) (UniProt P48736). Briefly: Inhibition of PIK3CG Kinase Activity.

Molecules are shown by their SMILES.

Sequence of PIK3CG (human) (P48736 whole entry, looked up): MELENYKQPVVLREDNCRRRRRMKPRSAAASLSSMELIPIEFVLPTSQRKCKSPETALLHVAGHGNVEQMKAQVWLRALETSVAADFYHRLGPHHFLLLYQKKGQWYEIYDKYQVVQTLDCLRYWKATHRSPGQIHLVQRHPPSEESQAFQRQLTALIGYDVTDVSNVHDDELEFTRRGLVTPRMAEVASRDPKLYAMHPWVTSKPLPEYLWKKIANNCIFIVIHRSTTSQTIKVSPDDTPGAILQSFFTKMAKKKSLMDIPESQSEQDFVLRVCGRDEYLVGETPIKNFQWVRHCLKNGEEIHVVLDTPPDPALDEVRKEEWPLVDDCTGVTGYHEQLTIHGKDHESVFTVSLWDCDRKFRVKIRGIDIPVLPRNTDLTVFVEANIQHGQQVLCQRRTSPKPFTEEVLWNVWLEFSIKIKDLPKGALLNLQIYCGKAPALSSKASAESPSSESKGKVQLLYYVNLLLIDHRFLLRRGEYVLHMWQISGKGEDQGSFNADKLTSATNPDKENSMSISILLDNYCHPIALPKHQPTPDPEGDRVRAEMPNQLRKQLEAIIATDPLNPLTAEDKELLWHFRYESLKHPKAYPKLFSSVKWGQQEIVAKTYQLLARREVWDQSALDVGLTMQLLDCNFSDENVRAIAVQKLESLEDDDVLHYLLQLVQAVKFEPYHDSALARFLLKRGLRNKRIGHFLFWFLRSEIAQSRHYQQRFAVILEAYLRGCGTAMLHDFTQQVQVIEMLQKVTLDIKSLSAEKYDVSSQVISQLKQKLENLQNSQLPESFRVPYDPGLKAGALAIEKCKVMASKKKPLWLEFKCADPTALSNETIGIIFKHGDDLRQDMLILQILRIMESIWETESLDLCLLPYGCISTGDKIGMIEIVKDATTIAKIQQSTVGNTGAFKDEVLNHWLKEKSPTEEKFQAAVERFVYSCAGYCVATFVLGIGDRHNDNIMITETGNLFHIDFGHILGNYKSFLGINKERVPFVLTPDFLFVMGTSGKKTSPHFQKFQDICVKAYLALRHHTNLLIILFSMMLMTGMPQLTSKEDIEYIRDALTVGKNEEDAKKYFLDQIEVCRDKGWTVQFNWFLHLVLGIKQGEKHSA

For `CCOc1ncc(-c2cc(C)c3c(n2)[C@@]2(CCCO2)N(c2cnn(CC(F)(F)F)c2)C3=O)cc1OC`, the Ki (usually a measure of affinity in units of concentration, obtained from inhibition or displacement) is under 100 nM.

The compound `COc1cc(OC)cc(-c2cc(C)c3c(n2)[C@@H](C)N(c2cnn(CC(F)(F)F)c2)C3=O)c1` yielded a Ki of under 100 nM. On to `COc1cc(-c2cc(C)c3c(n2)CN(c2ccc(C(F)(F)F)nc2)C3=O)cnc1OC`, for which the Ki is under 100 nM. The compound `COc1cncc(-c2cc(C)c3c(n2)[C@@H](C)N(c2ccn(C[C@H](C)O)n2)C3=O)c1` registered a Ki of under 100 nM. Compound `COc1cncc(-c2cc(C)c3c(n2)CN(c2ccn(C)n2)C3=O)c1` gave a Ki of under 100 nM. `COc1ncc(-c2cc(C)c3c(n2)CN(c2cnn(C(C)(C)C#N)c2)C3=O)cc1OC(C)C` registered a Ki of under 100 nM. With `COc1cc(-c2cc(C)c3c(n2)C(C)N(c2cnn(CC(F)(F)F)c2)C3=O)cnc1C` (centres undefined) the figure was under 100 nM; with `Cc1cc(-c2cncc(OCC(F)(F)F)c2)nc2c1C(=O)N(c1cnn(CC(F)(F)F)c1)[C@H]2C`, under 100 nM. In turn, `CC(=O)Nc1cncc(-c2cc(C)c3c(n2)C(C)(C)N(c2cnn(CC(F)(F)F)c2)C3=O)c1` came in with a Ki of under 100 nM. Next, `CCn1ccc(N2C(=O)c3ccc(-c4cnc(OC)c(OC)c4)nc3[C@H]2C)n1`: under 100 nM; `COc1ncc(-c2cc(C)c3c(n2)C(C)(C)N(c2cnn(CC(F)(F)F)c2)C3=O)cc1C(=O)N[C@@H]1CCOC1`: under 100 nM; `COc1cc(-c2ccc3c(n2)C(C)N(c2ccnc(CC#N)c2)C3=O)cnc1OC` (centres undefined): under 100 nM.

`C=C(F)Cn1cc(N2Cc3nc(-c4cncc(OC(F)F)c4)cc(C)c3C2=O)cn1` registered a Ki of under 100 nM. With `CCn1ccc(N2C(=O)c3ccc(-c4cnc(OC)c(OC)c4)nc3[C@@H]2C)n1` the figure was under 100 nM. Take `Cc1cc(-c2cncc(OC(C)C)c2)nc2c1C(=O)N(c1cnn(CC(F)(F)F)c1)C2(C)C`: the Ki was under 100 nM. Consider `CCOc1ncc(-c2cc(C)c3c(n2)C(OC)N(c2cnn(CC(F)(F)F)c2)C3=O)cc1OC` (centres undefined), for which the Ki was under 100 nM. Regarding `COc1cc(-c2ccc3c(n2)CN(c2cnn(CCN(C)C)c2)C3=O)cnc1OC`, the Ki was in the range of 100 to 490 nM. With `Cc1cc(-c2cccnc2)nc2c1C(=O)N(c1cnn(CC#N)c1)C2`, the Ki was under 100 nM. `COc1cc(-c2ccc3c(c2)CN(c2ccn(CC#N)n2)C3=O)cnc1OC` had a Ki of under 100 nM. As to `COc1cc(-c2ccc3c(n2)CN(c2ccc(N4CCCC(CO)C4)nc2)C3=O)cnc1OC` (centres undefined), the Ki was under 100 nM. Regarding `COc1cc(-c2cc(C)c3c(n2)CN(c2csc(CO)c2)C3=O)cnc1OC`, the Ki is under 100 nM. Compound `CCCn1cc(N2Cc3cc(-c4cnc(OC)c(OC)c4)ccc3C2=O)cn1` returned a Ki of 100 to 490 nM. `Cc1cc(-c2cncc(OC(F)F)c2)nc2c1C(=O)N(c1cnn(CC(F)(F)F)c1)C21CC1` had a Ki of under 100 nM. On to `Cc1cc(-c2cncc(OCC(F)(F)F)c2)nc2c1C(=O)N(c1cn(CC(F)(F)F)cn1)C2`, for which the inhibitory constant (Ki) is under 100 nM. With `COc1ccc(-c2ccc3c(n2)CN(c2cnn(CC#N)c2)C3=O)c(C)n1` the figure was 100 to 490 nM; with `COc1cncc(-c2cc(C)c3c(n2)[C@]2(CCCO2)N(c2cnn(CC(F)(F)F)c2)C3=O)c1`, 100 to 490 nM; with `COc1cc(-c2ccc3c(n2)[C@@H](C)N(c2cn[nH]c2)C3=O)cnc1OC`, under 100 nM. `CCOc1ncc(-c2cc(C)c3c(n2)C(OC(C)C)N(c2cnn(CC(F)(F)F)c2)C3=O)cc1OC` (centres undefined) gave a Ki of under 100 nM. In turn, `CCn1ccc(N2C(=O)c3c(C)cc(-c4cncc(OC(F)F)c4)nc3C2C)n1` (centres undefined) displayed a Ki of under 100 nM. As to `COc1cncc(-c2cc(C)c3c(n2)C(C)(C)N(c2cnn(CC#N)c2)C3=O)c1`, the inhibition constant Ki is under 100 nM. On to `COc1cncc(-c2cc(C)c3c(n2)CN(c2ccn(CC(C)(C)F)n2)C3=O)c1`, for which the Ki is under 100 nM. With `COc1ncc(-c2cc(C)c3c(n2)CN(c2cn[nH]c2)C3=O)cc1OCC(F)(F)F`, the Ki was under 100 nM.

`CCn1cc(N2C(=O)c3ccc(-c4cnc(OC)c(OC(F)F)c4)nc3[C@H]2C)cn1` had a Ki of under 100 nM. Take `Cc1cc(-c2cncc(F)c2)nc2c1C(=O)N(c1cnn(CC#N)c1)C2`: the inhibition constant (Ki) was under 100 nM.

These data come from the Kinase Knowledgebase extract (Sharma et al. 2016).
